What was measured:
human IGF1R = molecular target: T1, human IGF1R (Homo sapiens, UniProt P08069); test: Inhibition of Insulin-Like Growth Factor-1 Receptor Phosphorylation in R+ cells; type: cell-based; settings: median; R+ cells stimulated with 30 nM IGF1
T1 construct: expressed in transfected cells; host or cells: R+ cells (R- mouse fibroblasts transfected with human IGF1R)
Protocol: This immunofluorescence end point cell assay measures the ability of a test compound to reduce the measured levels of IGF1R phosphorylation after IGF1 stimulation in R cells. R^+ cells are derived by transfection of R^− mouse fibroblast cells with human IGF1R. R^+ cells are routinely cultured in DMEM growth medium (Gibco BRL, 41966) containing 2 mM L-Glutamine (Invitrogen Code no. 25030-024) and 10% (v/v) foetal bovine serum (FBS)) in a 5% CO2 air incubator at 37° C.
To undertake the assay, the R^+ cells are seeded at 5×10^3 cells/well in DMEM plus 1% foetal calf serum, 1% L-glutamine in 96-well black Packard View plates (PerkinElmer 6005182) and incubated at 37° C. (+5% CO2) in a humidified incubator. […]
Following the compound treatment, the R^+ cells are stimulated with a final concentration of 30 nM IGF1 (Gropep IM001) for 20 minutes at 37° C. […] Additionally, in-house antibodies raised against phospho IGF1R were also used at a suitable titre determined for each batch. […]
The Green Fluorescent phospho IGF1R-associated signal in each well was measured using an Acumen Explorer HTS Reader (TTP Labtech Ltd., Cambridge). Phospho IGF1R-associated fluorescence emission can be detected at 530 nm following excitation at 488 nm. […] These fluorescent objects can be quantified and provide a measure of the phospho IGF1R levels in cells. […]

[1] = molecular target: T2, human cytochrome P450 (CYP) 2C19 (Homo sapiens, UniProt P33261); test: Cytochrome P450 Inhibition Assay 2C19; type: in vitro ADME; settings: test compound final concentrations 0.1-10 μM; substrate MFC; read-out: Ic50 2C19
T2 construct: made in house; host or cells: yeast cell lines (microsomal fractions)
T2 sequence (P33261 whole entry): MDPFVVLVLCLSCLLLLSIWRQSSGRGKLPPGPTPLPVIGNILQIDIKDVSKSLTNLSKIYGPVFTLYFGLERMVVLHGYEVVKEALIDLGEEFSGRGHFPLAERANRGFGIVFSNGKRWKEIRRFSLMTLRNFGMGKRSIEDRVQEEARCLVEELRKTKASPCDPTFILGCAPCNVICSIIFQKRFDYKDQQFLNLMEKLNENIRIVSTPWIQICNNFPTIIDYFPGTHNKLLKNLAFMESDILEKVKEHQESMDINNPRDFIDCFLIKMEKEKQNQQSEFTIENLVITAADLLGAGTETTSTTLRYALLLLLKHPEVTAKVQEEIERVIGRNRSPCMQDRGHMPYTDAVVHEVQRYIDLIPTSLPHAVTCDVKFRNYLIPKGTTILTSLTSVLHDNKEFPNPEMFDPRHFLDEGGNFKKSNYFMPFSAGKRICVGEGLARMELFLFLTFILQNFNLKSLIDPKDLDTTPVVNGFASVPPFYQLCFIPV
Protocol: (§1) The inhibitory potential (IC50) of test compounds against 5 human cytochrome P450 (CYP) isoforms (1A2, 2C9, 2C19, 3A4 and 2D6) was assessed using an automated fluorescent end point in vitro assay modified from Crespi (Crespi and Stresser, 2000). Microsomal subcellular fractions prepared from Yeast cell lines expressing each human CYP isoform were used as an enzyme source in this assay. The activity of the 5 major human CYPs was determined from the biotransformation of a number of coumarin substrates to fluorescent metabolites, in the presence of NADPH. […] Stock solutions of each CYP, with its respective substrate, were prepared in phosphate buffer pH7.4 (see Table 1) and 178 μl was added to the well of a black solid, flat bottom, 300 μl 96 well is microtitre plate (Corning Costar). […] After pre-incubating at 37° C. for 5 min the reactions were started with addition of NADPH (20 μl, concentration shown in Table 1). The final solvent content in each incubation was <=2% (1% from the test compound and a maximum of 1% from the substrate). The appropriate solvent controls and substrate blanks were included in each experiment to assess control activity and identify any inherent fluorescence due to the test compounds. In addition, known inhibitors of each CYP were included as positive controls (see Table 3 for inhibitor concentrations and expected IC50 ranges). The reactions were stopped at defined timepoints (see Table 1) by quenching with 100 μl of solvent (acetonitrile:0.5M Tris buffer 80:20 v/v). The plates were read on a fluorimeter (Spectrafluor Plus) at the appropriate excitation and emission wavelengths (listed in Table 2) and the percent activity, corrected for control, was plotted against the test compound concentration.

[2] = molecular target: T3, human cytochrome P450 (CYP) 2D6 (Homo sapiens, UniProt P10635); test: Cytochrome P450 Inhibition Assay 2D6; type: in vitro ADME; settings: test compound final concentrations 0.1-10 μM; substrate MAMC
T3 construct: made in house; host or cells: yeast cell lines (microsomal fractions)
T3 sequence (P10635 whole entry): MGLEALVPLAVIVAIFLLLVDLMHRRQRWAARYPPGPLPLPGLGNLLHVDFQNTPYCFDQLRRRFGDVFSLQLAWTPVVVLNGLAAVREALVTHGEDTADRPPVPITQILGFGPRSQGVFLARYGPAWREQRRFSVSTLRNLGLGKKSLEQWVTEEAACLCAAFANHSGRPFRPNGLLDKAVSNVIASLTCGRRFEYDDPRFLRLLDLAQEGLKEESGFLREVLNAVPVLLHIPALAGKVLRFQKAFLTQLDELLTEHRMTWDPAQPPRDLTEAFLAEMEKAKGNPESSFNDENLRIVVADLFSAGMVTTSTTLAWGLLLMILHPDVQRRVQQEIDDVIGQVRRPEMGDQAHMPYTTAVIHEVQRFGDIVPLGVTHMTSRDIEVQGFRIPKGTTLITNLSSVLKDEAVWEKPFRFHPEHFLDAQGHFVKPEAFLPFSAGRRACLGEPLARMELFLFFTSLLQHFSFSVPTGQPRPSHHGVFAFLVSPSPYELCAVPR
Protocol: as §1, with “The final solvent content in each incubation was <=2% (1% from the test compound and a maximum of 1% from the substrate).” left out, “In addition, known inhibitors of each CYP were included as positive controls (see Table 3 for inhibitor concentrations and expected IC50 ranges). The reactions were stopped at defined timepoints (see Table 1) by quenching with 100 μl of solvent (acetonitrile:0.5M Tris buffer 80:20 v/v).” left out

[3] = molecular target: T4, human cytochrome P450 (CYP) 3A4 (Homo sapiens, UniProt P08684); test: Cytochrome P450 Inhibition Assay 3A4; type: in vitro ADME; settings: test compound final concentrations 0.1-10 μM; substrate BFC
T4 construct: made in house; host or cells: yeast cell lines (microsomal fractions)
T4 sequence (P08684 whole entry): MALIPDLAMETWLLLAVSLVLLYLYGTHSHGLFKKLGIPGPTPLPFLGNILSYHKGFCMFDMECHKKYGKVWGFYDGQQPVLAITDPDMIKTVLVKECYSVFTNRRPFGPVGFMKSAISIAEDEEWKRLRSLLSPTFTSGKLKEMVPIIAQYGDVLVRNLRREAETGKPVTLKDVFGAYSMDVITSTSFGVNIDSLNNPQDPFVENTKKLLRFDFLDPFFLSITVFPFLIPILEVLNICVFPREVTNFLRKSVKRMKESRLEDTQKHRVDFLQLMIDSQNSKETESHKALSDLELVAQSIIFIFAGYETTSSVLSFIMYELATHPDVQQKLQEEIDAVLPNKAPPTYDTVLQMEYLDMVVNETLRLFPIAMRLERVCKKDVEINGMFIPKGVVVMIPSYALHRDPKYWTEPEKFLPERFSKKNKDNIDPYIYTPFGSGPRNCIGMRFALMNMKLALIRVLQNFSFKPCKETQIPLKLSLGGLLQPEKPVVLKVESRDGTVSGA
Protocol: as §1, with “The final solvent content in each incubation was <=2% (1% from the test compound and a maximum of 1% from the substrate).” left out, “In addition, known inhibitors of each CYP were included as positive controls (see Table 3 for inhibitor concentrations and expected IC50 ranges). The reactions were stopped at defined timepoints (see Table 1) by quenching with 100 μl of solvent (acetonitrile:0.5M Tris buffer 80:20 v/v).” left out

T1 sequence (P08069 31-1367): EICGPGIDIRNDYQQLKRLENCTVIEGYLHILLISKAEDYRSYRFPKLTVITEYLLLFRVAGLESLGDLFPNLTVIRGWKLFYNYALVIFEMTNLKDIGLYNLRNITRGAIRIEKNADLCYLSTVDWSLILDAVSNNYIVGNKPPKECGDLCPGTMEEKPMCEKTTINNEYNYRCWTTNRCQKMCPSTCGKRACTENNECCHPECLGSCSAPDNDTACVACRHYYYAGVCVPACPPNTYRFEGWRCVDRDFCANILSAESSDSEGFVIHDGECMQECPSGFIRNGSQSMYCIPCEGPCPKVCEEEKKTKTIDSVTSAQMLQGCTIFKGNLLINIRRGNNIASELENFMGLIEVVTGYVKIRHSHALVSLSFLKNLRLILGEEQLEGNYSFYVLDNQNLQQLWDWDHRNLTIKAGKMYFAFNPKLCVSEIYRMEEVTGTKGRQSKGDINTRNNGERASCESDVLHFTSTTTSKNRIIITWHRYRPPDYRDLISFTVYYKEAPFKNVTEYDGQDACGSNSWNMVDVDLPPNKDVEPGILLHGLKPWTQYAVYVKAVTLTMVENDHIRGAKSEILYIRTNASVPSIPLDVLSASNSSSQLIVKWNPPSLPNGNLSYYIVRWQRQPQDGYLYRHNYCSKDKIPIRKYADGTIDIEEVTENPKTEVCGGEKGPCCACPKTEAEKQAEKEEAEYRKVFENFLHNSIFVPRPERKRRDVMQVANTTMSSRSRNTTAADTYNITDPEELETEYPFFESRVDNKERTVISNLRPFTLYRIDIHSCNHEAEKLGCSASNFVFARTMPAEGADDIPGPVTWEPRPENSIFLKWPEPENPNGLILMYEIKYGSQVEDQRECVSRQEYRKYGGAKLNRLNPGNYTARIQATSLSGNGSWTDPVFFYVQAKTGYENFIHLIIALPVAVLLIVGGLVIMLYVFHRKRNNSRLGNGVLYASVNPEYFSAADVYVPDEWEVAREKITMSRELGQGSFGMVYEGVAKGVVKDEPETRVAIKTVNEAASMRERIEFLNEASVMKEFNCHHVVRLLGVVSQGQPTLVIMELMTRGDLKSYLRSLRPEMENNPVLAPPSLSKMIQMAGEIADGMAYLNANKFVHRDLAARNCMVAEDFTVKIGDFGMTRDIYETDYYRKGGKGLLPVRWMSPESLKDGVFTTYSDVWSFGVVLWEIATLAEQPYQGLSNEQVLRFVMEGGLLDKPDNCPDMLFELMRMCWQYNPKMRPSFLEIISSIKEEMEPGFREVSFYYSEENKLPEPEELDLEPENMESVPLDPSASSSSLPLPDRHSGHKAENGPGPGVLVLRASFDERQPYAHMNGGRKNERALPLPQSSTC

Row | SMILES | IC50 (human IGF1R) [µM] | IC50 [1] [µM] | IC50 [2] [µM] | IC50 [3] [µM]
1 | CCc1cc(Nc2cc(OC)nc(N3CCC[C@H]3c3cc(-c4ncccn4)no3)n2)n[nH]1 [Comparative Example A, (S)-6-Methoxy-2-{2-[3-(pyrimid-2-yl)isoxazol-5-yl]pyrrolidin-1-yl}-4-(5-ethyl-1H-pyrazol-3-ylamino)pyrimidine] | 0.00268 | > 10 | > 10 | > 10
2 | COc1cc(Nc2cc(C)n[nH]2)nc(N2CCC[C@H]2c2cc(-c3ncccn3)no2)n1 [Example 1, (S)-6-Methoxy-2-{2-[3-(pyrimid-2-yl)isoxazol-5-yl]pyrrolidin-1-yl}-4-(5-methyl-1H-pyrazol-3-ylamino)pyrimidine] | 0.00429 | > 10 | > 10 | > 10

Source: patent publication US20080269266A1, “NOVEL COMPOUNDS 747” (ASTRAZENECA AB, priority 2007, published 2008)
